Peptide text beside a SMILES is read from it.
Tests used:
[1] = test system: HMLER; assay: cells; format: cell-based, human; conditions: 72 h
Description: (§1) […], and MCF-10A cells were maintained in MEGM with supplements and growth factors bovine pituitary extract, hydrocortisone, human epidermal growth factor, insulin, and gentamicin/amphotericin-B.

[2] = test system: HMLER‐shEcad; assay: cells; format: cell-based, human; conditions: 72 h
Description: as §1

[3] = test system: MCF‐10A; assay: cells; format: cell-based, human; conditions: 72 h
Description: as §1

[4] = test system: U2OS; format: cell-based, human; conditions: 72 h
[5] = test system: HEK293T; assay: cells; format: cell-based, human; conditions: 72 h
[6] = Tryptophan fluorescent binding assay; conditions: tryptophan fluorescence; 50 µM peptide, lipid titrated 0-5000 µM; phosphate buffered saline 1X, pH 7.4; values as lipid per peptide
Description: 50 µM ACP peptides and varied concentrations (concentrations: 0, 25, 50, 100, 150, 200, 250, 500, 1250, and 2500 µM) of POPC or POPC:POPG (3:1 ratio) large unilamellar vesicles were prepared in 10 mM phosphate buffer (pH 7.0). The solutions were measured after 1 h of incubation. Excitation was fixed at 280 nm (slit 9 nm) and emission was collected from 300 to 450 nm (slit 9 nm). The spectra were recorded using Cytation 5 Cell Imaging Multi‐Mode Reader from BioTek and were averaged by three scans.
Lipid Concentration-induced
Name Sequence† 50% Peptide Binding (L/P)
Extended Data Table 3 | Tryptophan binding assay. […]
peptide binding onto liposome. 50 µM peptides were fixed and incubated with titrated lipid (POPC vesicle […]
phosphate buffered saline (1X, pH 7.4). The lipid concentration that causes 50 % peptide binding was determined using tryptophan fluorescent binding assay and the values are shown as lipid per peptide.

[7] = ANTS/DPX liposome leakage assay; conditions: for Peptide Concentration-induced 50 % ANTS/DPX leakage at pH 4.8 (L/P), 3POPC/1POPG Vesicle / Peptide Concentration-induced 50 % ANTS/DPX leakage at pH 4.8 (L/P), POPC Vesicle / Peptide Concentration-induced 50 % ANTS/DPX leakage at pH 7.4 (L/P), 3POPC/1POPG Vesicle / Peptide Concentration-induced 50 % ANTS/DPX leakage at pH 7.4 (L/P), POPC Vesicle: 0.5 mM vesicles, peptide 0-20 µM, 3 h incubation, lipid per peptide; for Peptide Concentration-induced 50 % ANTS/DPX leakage at pH 4.8 (L/P), 3POPC/1POPG Vesicle / Peptide Concentration-induced 50 % ANTS/DPX leakage at pH 4.8 (L/P), POPC Vesicle: HCl-adjusted PBS 1X pH 4.8; for Peptide Concentration-induced 50 % ANTS/DPX leakage at pH 7.4 (L/P), 3POPC/1POPG Vesicle / Peptide Concentration-induced 50 % ANTS/DPX leakage at pH 7.4 (L/P), POPC Vesicle: PBS 1X pH 7.4, high ratio = more potent
Description: Vesicle preparation: 5 mM ANTS and 12.5 mM DPX were entrapped in 0.1 µm diameter extruded vesicles (either POPC or POPC/POPG at a ratio of 3:1) with lipids. Gel filtration chromatography of Sephadex G‐100 was used to remove external free ANTS/DPX from LUVs with entrapped contents. LUVs were diluted to 0.5 mM and used to measure the leakage activity by the addition of aliquots of ACPs. Leakage was measured after 3 h incubation. 10% Triton was used as the positive control to measure the maximum leakage of the vesicle. Fluorescence emission spectra were recorded using excitation and emission wavelength of 350 and 510 nm for ANTS/DPX using a BioTek Synergy H1 Hybrid Multi‐Mode Reader.
Peptide Concentration-induced Peptide Concentration-induced
Name Sequence† 50 % ANTS/DPX leakage 50 % ANTS/DPX leakage at pH 7.4 (L/P) at pH 4.8 (L/P)
POPC Vesicle 3POPC/1POPG Vesicle POPC Vesicle 3POPC/1POPG Vesicle […]
Extended Data Table 4 | Peptide concentration-induced 50 % ANTS/DPX liposome leakage. 0.5 mM POPC and 3POPC/1POPG vesicles were fixed and incubated with titrated peptide concentration (0, 0.02, […]
hydrochloric acid-adjusted phoshate buffered saline (1X, pH 4.8). The values are shown as lipid per

| Compound | IC50 [1] | IC50 [2] | IC50 [3] | IC50 [4] | Lipid Concentration-induced 50% Peptide Binding (L/P), 3POPC/1POPG Vesicle [6] | Lipid Concentration-induced 50% Peptide Binding (L/P), POPC Vesicle [6] | IC50 [5] | Peptide Concentration-induced 50 % ANTS/DPX leakage at pH 4.8 (L/P), 3POPC/1POPG Vesicle [7] | Peptide Concentration-induced 50 % ANTS/DPX leakage at pH 4.8 (L/P), POPC Vesicle [7] | Peptide Concentration-induced 50 % ANTS/DPX leakage at pH 7.4 (L/P), 3POPC/1POPG Vesicle [7] | Peptide Concentration-induced 50 % ANTS/DPX leakage at pH 7.4 (L/P), POPC Vesicle [7] | change of ANTS/DPX dye leakage / liposome selectivity at pH 4.8 ([7]; pH = 4.8 compared with physiological pH, anionic versus neutral liposomes) |
| --- | --- | --- | --- | --- | --- | --- | --- | --- | --- | --- | --- | --- |
| CC(C)C[C@H](NC(=O)CN)C(=O)N[C@@H](CC(C)C)C(=O)N[C@@H](CC(=O)O)C(=O)N[C@@H](CC(C)C)C(=O)N[C@@H](CC(C)C)C(=O)N[C@@H](CCCCN)C(=O)N[C@@H](CC(C)C)C(=O)N[C@@H](CC(C)C)C(=O)N[C@@H](CC(C)C)C(=O)N[C@@H](CCC(=O)O)C(=O)N[C@@H](C)C(=O)N[C@@H](C)C(=O)NCC(=O)N[C@@H](Cc1c[nH]c2ccccc12)C(N)=O [DKE] (H-GLLDLLKLLLEAAGW-NH2) | 2100 nM | 1570 ± 330 nM | 4.75 ± 0.49 µM | 9.93 ± 0.25 µM | 0.46 L/P | 0.56 L/P | 7.8 ± 1.41 µM | 469 L/P | 21 L/P | 411 L/P | 747 L/P | – |
| CC(C)C[C@H](NC(=O)CN)C(=O)N[C@@H](CC(C)C)C(=O)N[C@@H](CCC(=O)O)C(=O)N[C@@H](CC(C)C)C(=O)N[C@@H](CC(C)C)C(=O)N[C@@H](Cc1c[nH]cn1)C(=O)N[C@@H](CC(C)C)C(=O)N[C@@H](CC(C)C)C(=O)N[C@@H](CC(C)C)C(=O)N[C@@H](Cc1c[nH]cn1)C(=O)N[C@@H](C)C(=O)N[C@@H](C)C(=O)NCC(=O)N[C@@H](Cc1c[nH]c2ccccc12)C(N)=O [EHH] (H-GLLELLHLLLHAAGW-NH2) | 25400 ± 2760 nM | 16000 ± 3180 nM | 150 ± 71 µM | 117 ± 7 µM | 0.69 L/P | 0.94 L/P | 5.9 ± 0.14 µM | 80 L/P | 386 L/P | 981 L/P | 1043 L/P | increased selectivity for neutral bilayers |
| CC(C)C[C@H](NC(=O)CN)C(=O)N[C@@H](CC(C)C)C(=O)N[C@@H](CCC(=O)O)C(=O)N[C@@H](CC(C)C)C(=O)N[C@@H](CC(C)C)C(=O)N[C@@H](CCCCN)C(=O)N[C@@H](CC(C)C)C(=O)N[C@@H](CC(C)C)C(=O)N[C@@H](CC(C)C)C(=O)N[C@@H](CCC(=O)O)C(=O)N[C@@H](C)C(=O)N[C@@H](C)C(=O)NCC(=O)N[C@@H](Cc1c[nH]c2ccccc12)C(N)=O [EKE] (H-GLLELLKLLLEAAGW-NH2) | 1800 ± 280 nM | 1300 ± 140 nM | 8.8 µM | 8 ± 0.71 µM | 1.63 L/P | 2.75 L/P | 5.15 ± 0.21 µM | 438 L/P | 75 L/P | 657 L/P | 738 L/P | – |
| CC(C)C[C@H](NC(=O)CN)C(=O)N[C@@H](CC(C)C)C(=O)N[C@@H](CCC(=O)O)C(=O)N[C@@H](CC(C)C)C(=O)N[C@@H](CC(C)C)C(=O)N[C@@H](CCCCN)C(=O)N[C@@H](CC(C)C)C(=O)N[C@@H](CC(C)C)C(=O)N[C@@H](CC(C)C)C(=O)N[C@@H](Cc1c[nH]cn1)C(=O)N[C@@H](C)C(=O)N[C@@H](C)C(=O)NCC(=O)N[C@@H](Cc1c[nH]c2ccccc12)C(N)=O [EKH] (H-GLLELLKLLLHAAGW-NH2) | 2750 ± 70 nM | 2180 ± 310 nM | 7.9 ± 0.42 µM | 23.8 ± 0.81 µM | 0.19 L/P | 0.75 L/P | 6.65 ± 1.34 µM | 88 L/P | 55 L/P | 365 L/P | 608 L/P | – |

Continued by falling IC50 [1], values first:

| IC50 [1] | IC50 [2] | IC50 [3] | IC50 [4] | Lipid Concentration-induced 50% Peptide Binding (L/P), 3POPC/1POPG Vesicle [6] | Lipid Concentration-induced 50% Peptide Binding (L/P), POPC Vesicle [6] | Compound | IC50 [5] | Peptide Concentration-induced 50 % ANTS/DPX leakage at pH 4.8 (L/P), 3POPC/1POPG Vesicle [7] | Peptide Concentration-induced 50 % ANTS/DPX leakage at pH 4.8 (L/P), POPC Vesicle [7] | Peptide Concentration-induced 50 % ANTS/DPX leakage at pH 7.4 (L/P), 3POPC/1POPG Vesicle [7] | Peptide Concentration-induced 50 % ANTS/DPX leakage at pH 7.4 (L/P), POPC Vesicle [7] | change of ANTS/DPX dye leakage / liposome selectivity at pH 4.8 ([7]; pH = 4.8 compared with physiological pH, anionic versus neutral liposomes) |
| --- | --- | --- | --- | --- | --- | --- | --- | --- | --- | --- | --- | --- |
| 21400 ± 2470 nM | 11900 ± 140 nM | > 200 µM | 55.9 ± 18.9 µM | 0.28 L/P | 0.67 L/P | CC(C)C[C@H](NC(=O)CN)C(=O)N[C@@H](CC(C)C)C(=O)N[C@@H](CC(=O)O)C(=O)N[C@@H](CC(C)C)C(=O)N[C@@H](CC(C)C)C(=O)N[C@@H](Cc1c[nH]cn1)C(=O)N[C@@H](CC(C)C)C(=O)N[C@@H](CC(C)C)C(=O)N[C@@H](CC(C)C)C(=O)N[C@@H](Cc1c[nH]cn1)C(=O)N[C@@H](C)C(=O)N[C@@H](C)C(=O)NCC(=O)N[C@@H](Cc1c[nH]c2ccccc12)C(N)=O [DHH] (H-GLLDLLHLLLHAAGW-NH2) | 6.4 ± 0.42 µM | 98 L/P | 106 L/P | 692 L/P | 684 L/P | – |
| 3450 ± 70 nM | 2800 ± 280 nM | 7.05 ± 0.21 µM | 21.1 ± 3.01 µM | 0.46 L/P | 10.00 L/P | CC(C)C[C@H](NC(=O)CN)C(=O)N[C@@H](CC(C)C)C(=O)N[C@@H](CC(=O)O)C(=O)N[C@@H](CC(C)C)C(=O)N[C@@H](CC(C)C)C(=O)N[C@@H](CCCCN)C(=O)N[C@@H](CC(C)C)C(=O)N[C@@H](CC(C)C)C(=O)N[C@@H](CC(C)C)C(=O)N[C@@H](Cc1c[nH]cn1)C(=O)N[C@@H](C)C(=O)N[C@@H](C)C(=O)NCC(=O)N[C@@H](Cc1c[nH]c2ccccc12)C(N)=O [DKH] (H-GLLDLLKLLLHAAGW-NH2) | 6.15 ± 1.34 µM | 58 L/P | 41 L/P | 274 L/P | 614 L/P | – |
| 1950 ± 350 nM | 1200 ± 140 nM | 2.57 ± 0.52 µM | 10.4 ± 1.7 µM | 6.88 L/P | 2.75 L/P | CC(C)C[C@H](NC(=O)CN)C(=O)N[C@@H](CC(C)C)C(=O)N[C@@H](CC(=O)O)C(=O)N[C@@H](CC(C)C)C(=O)N[C@@H](CC(C)C)C(=O)N[C@@H](CCCCN)C(=O)N[C@@H](CC(C)C)C(=O)N[C@@H](CC(C)C)C(=O)N[C@@H](CC(C)C)C(=O)N[C@@H](CCCCN)C(=O)N[C@@H](C)C(=O)N[C@@H](C)C(=O)NCC(=O)N[C@@H](Cc1c[nH]c2ccccc12)C(N)=O [DKK] (H-GLLDLLKLLLKAAGW-NH2) | 3.4 ± 0.28 µM | 227 L/P | 47 L/P | 156 L/P | 463 L/P | – |
| 1350 ± 350 nM | 710 ± 130 nM | 3.6 ± 0.99 µM | 25 µM | 0.42 L/P | 0.56 L/P | CC(C)C[C@H](NC(=O)CN)C(=O)N[C@@H](CC(C)C)C(=O)N[C@@H](CCC(=O)O)C(=O)N[C@@H](CC(C)C)C(=O)N[C@@H](CC(C)C)C(=O)N[C@@H](Cc1c[nH]cn1)C(=O)N[C@@H](CC(C)C)C(=O)N[C@@H](CC(C)C)C(=O)N[C@@H](CC(C)C)C(=O)N[C@@H](CCCCN)C(=O)N[C@@H](C)C(=O)N[C@@H](C)C(=O)NCC(=O)N[C@@H](Cc1c[nH]c2ccccc12)C(N)=O [EHK] (H-GLLELLHLLLKAAGW-NH2) | 5.35 ± 0.07 µM | 117 L/P | 55 L/P | 505 L/P | 981 L/P | – |

From PMC9069370, “Integrated Design of a Membrane‐Lytic Peptide‐Based Intravenous Nanotherapeutic Suppresses Triple‐Negative Breast Cancer” (Advanced Science, 2022)
